Data from PMC5983644, “Expression and Interaction Analysis among Saffron ALDHs and Crocetin Dialdehyde” (International Journal of Molecular Sciences, 2018).

Biological target: T1, ALDH20158 (Crocus sativus, UniProt A0A3G1GZK3)
T1 sequence (A0A3G1GZK3 31-535): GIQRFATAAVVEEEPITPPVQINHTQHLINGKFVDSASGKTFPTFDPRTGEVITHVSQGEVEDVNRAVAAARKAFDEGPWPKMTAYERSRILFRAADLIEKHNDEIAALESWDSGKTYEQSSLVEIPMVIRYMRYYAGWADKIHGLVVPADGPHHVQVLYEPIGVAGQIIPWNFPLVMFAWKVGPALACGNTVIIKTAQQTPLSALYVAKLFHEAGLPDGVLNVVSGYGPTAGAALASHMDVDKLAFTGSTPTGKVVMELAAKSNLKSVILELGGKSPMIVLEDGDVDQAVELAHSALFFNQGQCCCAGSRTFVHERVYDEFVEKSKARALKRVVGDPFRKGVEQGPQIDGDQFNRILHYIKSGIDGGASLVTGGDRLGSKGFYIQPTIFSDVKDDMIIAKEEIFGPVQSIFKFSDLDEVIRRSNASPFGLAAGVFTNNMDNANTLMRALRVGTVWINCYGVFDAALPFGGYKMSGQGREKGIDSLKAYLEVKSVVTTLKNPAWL
Assay: LC-APCI(+)-MS of crocetin formed by crude extract of E. coli expressing the enzyme
Type: biochemical
Conditions: NAD+, pyrophosphate buffer, NaCl, pH 7.5, 28 C, 30 min; empty-vector extract as control

C\C(C=O)=C/C=C/C(C)=C/C=C/C=C(C)/C=C/C=C(\C)C=O [crocetin dialdehyde]
LC-APCI(+)-MS of crocetin formed by crude extract of E. coli expressing the enzy: the same results were obtained using ALDH20158 and ALDH3898
